49 molecules from PubChem BioAssay AID720587 (Broad Institute, 2013) can be followed below.

The assay in a line: EWS/Fli1-dependent A673 cell killing, confirmation, CellTiter-Glo luminescence, cherry-pick retest (AID 720587). The settings on record: A673 Ewing sarcoma viability, CellTiter-Glo ATP luminescence, 72 h. In general terms: In ATP-based viability assays light output follows the ATP content of the culture.

The structures appear in SMILES notation. Calls of active or inactive are those of the source.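 Rule for the calls: active = fitted curve reaches -35% activity change at a concentration below twice the top valid dose tested; inactive = the rest, including effects opposite to the expected direction.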

For the molecule `O=C(C[C@@H]1CC[C@@H]2[C@H](COC[C@@H](O)CN2S(=O)(=O)c2ccc(F)cc2)O1)NCc1ccc(Cl)c(Cl)c1`, for the setting “at 26 µM (top of the series)”, the activity change, negative = cytotoxicity was 8.17% (inactive).

For the molecule `COC(=O)C[C@@H]1CC[C@@H]2[C@H](COc3ccc(NC(=O)c4cccc(Cl)c4)cc3C(=O)N2C)O1`, the activity change, negative = cytotoxicity (at 23.5 µM (top of the series)) is -7.39% (inactive). In the case of `O=C(Nc1cccc(Oc2ccc3c(c2)C(=O)NC3=O)c1)c1cccs1`, the activity change, negative = cytotoxicity (at 26 µM (top of the series)) is -6.77% (inactive).

As to `COc1ccc(C(=O)NCCNc2nc3cc(C)cc(C)c3cc2C#N)c(OC)c1`, under “at 26 µM (top of the series)”, the activity change, negative = cytotoxicity was 0.961% (inactive). For `COc1ccc(-c2sc3ccccc3c2-c2ccc(OCCN3CCCCC3)cc2)cc1`, where the note is “at 26 µM (top of the series)”, the activity change, negative = cytotoxicity is -3.21% (inactive). The same measure, in the same setting: as for `N#C[C@@H]1[C@H](c2ccc(C#Cc3ccccc3F)cc2)[C@@H](CO)N1C(=O)c1cccnc1`, the figure is 1.54% (inactive); as for `CN(C)[C@@H]1CCC[C@@H]1OC(=O)C(c1ccccc1)c1ccccc1`, -2.99% (inactive); as for `O=C(Nc1nc(-c2ccc(F)c(F)c2)cs1)c1ccc(OCC2CCCO2)cc1` (centres undefined), 5.7% (inactive). Same read-out and setting: as for `O=C(O)c1ccc(N/N=C/c2c(F)cccc2Cl)cc1`, the figure is -4.19% (inactive). Still for that read-out and setting: as for `Cc1occc1-c1n[nH]c(=S)n1C`, the figure is 1.91% (inactive). With `COc1ccccc1CNC(=O)C[C@@H]1CC[C@H]2[C@@H](COC[C@H](O)CN2C(=O)Nc2ccc(C(F)(F)F)cc2)O1`, the activity change, negative = cytotoxicity (at 26 µM (top of the series)) was -9.47% (inactive). For `N#C[C@H]1N[C@H](CO)[C@H]1c1ccc(C#Cc2ccccc2F)cc1`, the activity change, negative = cytotoxicity (at 23.5 µM (top of the series)) was 3.42% (inactive). As to `COc1cc(/C=N/NS(=O)(=O)c2ccc3ccccc3c2)ccc1OCc1ccc(C(=O)O)cc1`, under “at 26 µM (top of the series)”, the activity change, negative = cytotoxicity is 0.172% (inactive). In the case of `O=C(NC1CCCC1)C(c1ccccc1)n1c(CSCCOc2ccccc2)nc2ccccc21` (centres undefined), where the note is “at 26 µM (top of the series)”, the activity change, negative = cytotoxicity is -7.19% (inactive). Same read-out and setting: as for `Cc1noc(C)c1NC(=O)Nc1ccc2c(c1)CC(=O)N([C@@H](C)CO)C[C@@H](C)[C@@H](CN(C)Cc1ccc(Cl)c(Cl)c1)O2`, the figure is 0.825% (inactive).

`Cc1cc(-c2nc3ccccc3s2)ccc1N`: for the setting “at 26 µM (top of the series)”, the activity change, negative = cytotoxicity was -21.8% (inactive). Same read-out and setting: as for `Cc1ccc(NC(=O)COC(=O)c2ccc3c(c2)OCO3)cc1S(=O)(=O)N1CCCCC1`, the figure is -4.65% (inactive); as for `CCc1ccc(/C=C2\SC(=S)N(CCCC(=O)Nc3cc(C)on3)C2=O)cc1`, -3.29% (inactive); as for `COCCCNc1ccn2nc(-c3ccccc3)cc2n1`, 0.68% (inactive). Still for that read-out and setting: as for `CCc1ccc(Cn2ncc3c(C(=O)O)cc(C)nc32)cc1`, the figure is 17.3% (inactive).

For the molecule `C[C@@H]1CN([C@@H](C)CO)C(=O)Cc2cc(NC(=O)Cn3cnnn3)ccc2O[C@@H]1CN(C)Cc1ccc(Oc2ccccc2)cc1`, the activity change, negative = cytotoxicity (at 26 µM (top of the series)) is 8.72% (inactive). The same measure, in the same setting: under `CN(C)c1ccc(N=Nc2ccccc2Br)cc1` stands -10.3% (inactive); under `Cc1ccc(C(CC(=O)O)Nc2nc(N3CCOCC3)nc(N3CCOCC3)n2)cc1` (centres undefined), 16.9% (inactive); under `CN(C)c1ccc(N=Nc2ccc(C(=O)O)cc2)cc1`, 1.5% (inactive). Still for that read-out and setting: as for `CCc1ccc(/C=C2\SC(=S)N(CCC(=O)Nc3cc(C)on3)C2=O)cc1`, the figure is 6.27% (inactive). As for `COc1ccc(NS(=O)(=O)c2cc(NC(=O)CNC(=O)c3cccc(OC)c3)ccc2C)cc1`, the activity change, negative = cytotoxicity (at 8 µM (top of the series)) was 12.2% (inactive). For the molecule `CCOC(=O)Cc1csc(NC(=S)NC(=O)c2ccc(C)cc2)n1`, the activity change, negative = cytotoxicity (at 26 µM (top of the series)) was -1.19% (inactive).

With `N#C[C@@H]1[C@H](c2ccc(C#Cc3cccc(F)c3)cc2)[C@@H](CO)N1C(=O)C1CCCC1`, the activity change, negative = cytotoxicity (at 26 µM (top of the series)) is -2.07% (inactive).

Consider `COc1ccc(Cl)cc1S(=O)(=O)Nc1ccc2c(c1)n(C)c(=O)n2C`, for which the activity change, negative = cytotoxicity (at 26 µM (top of the series)) was -1.58% (inactive). The same measure, in the same setting: as for `Cc1ccccc1N=Nc1c(O)n(C)c2ccccc12`, the figure is -1.37% (inactive); as for `C/C(=N\N(c1ccccc1)c1ccccc1)c1ccco1`, -1.2% (inactive). On the same count and under the same terms, as for `CCCN(C)C[C@H]1Oc2ncc(-c3ccccc3)cc2C(=O)N([C@@H](C)CO)C[C@H]1C`, the figure is -4.17% (inactive); as for `COc1ccc(C/C(N)=N/OC(C)=O)cc1OC`, 0.039% (inactive); as for `COc1ccc(CNc2ncc(-c3ccc(F)cc3)n2C)c2ccccc12`, 2.68% (inactive). For `COc1ccc(/C=C2\SC(=S)N(CCCC(=O)Nc3ccc(O)cc3)C2=O)cc1`, under “at 26 µM (top of the series)”, the activity change, negative = cytotoxicity is -14.2% (inactive). For the molecule `CCCCOc1ccc(NC(=O)C(=O)NCCCn2ccnc2)cc1`, the activity change, negative = cytotoxicity (at 26 µM (top of the series)) was -2.77% (inactive). In the case of `O=S(=O)(c1ccc(F)cc1)N1C[C@H]2[C@@H](c3ccccc31)[C@H](CO)N2Cc1ccccc1Cl`, the activity change, negative = cytotoxicity (at 23.5 µM (top of the series)) is -16.4% (inactive).

Regarding `Cc1ccc(/C=C2\SC(=S)N(CCC(=O)NNC(=O)c3ccccc3O)C2=O)cc1`, the activity change, negative = cytotoxicity (at 26 µM (top of the series)) was 6.17% (inactive). On the same count and under the same terms, as for `CCCCN=C(NNc1ccc(Br)cc1)C(=O)OCC`, the figure is -5.32% (inactive). The same measure, in the same setting: under `O=C(NCCc1ccccc1)c1ccccc1NC(=O)C1CCCO1` (centres undefined) stands 0.338% (inactive); under `C[C@@H]1CN([C@H](C)CO)C(=O)c2cc(NS(=O)(=O)c3ccc(Cl)cc3)ccc2O[C@@H]1CN(C)Cc1ccc(Cl)c(Cl)c1`, -17.2% (inactive); under `Cc1c(CC(=O)NCCCC(=O)O)c(=O)oc2cc3c(cc12)CCC(C)(C)O3`, -4.88% (inactive). As for `O=C1Nc2ccccc2C1=Nc1ccccc1-c1ccccc1`, for the setting “at 26 µM (top of the series)”, the activity change, negative = cytotoxicity is -7.56% (inactive). Still for that read-out and setting: as for `Cc1noc(C)c1NC(=O)Nc1ccc2c(c1)CC(=O)N([C@H](C)CO)C[C@@H](C)[C@@H](CN(C)Cc1ccc(Cl)c(Cl)c1)O2`, the figure is 7.25% (inactive); as for `COC(=O)Cc1[nH]n(-c2nc3ccccc3s2)c(=O)c1C(C)=Nc1ccc(C)cc1`, -10.7% (inactive); as for `CCOc1ccc(-c2cc(CCCC(=O)N3CCN(c4ccc(OC)cc4)CC3)no2)cc1`, 9.05% (inactive). For `COc1ccc(S(=O)(=O)N=Nc2c(O)[nH]c3ccccc23)cc1`, where the note is “at 26 µM (top of the series)”, the activity change, negative = cytotoxicity was 8.74% (inactive). For `COc1ccc(Nc2ncnc3ccc(Br)cc23)c(OC)c1`, the activity change, negative = cytotoxicity (at 26 µM (top of the series)) was -5.17% (inactive). On the same count and under the same terms, as for `CC(=O)Nc1ccc(S(=O)(=O)Nc2ccc(N3CCCCC3)cc2)cc1`, the figure is -16.3% (inactive).
